Patent publication US9999614B2, “Combination for the prophylaxis and treatment of behavioural, mental, and cognitive disorders” (LTD “VALENTA-INTELLEKT”, priority 2012, dated 2018)

System: amnesia in mice, as caused by scopolamine
Assay: CPAR, model of amnesia caused by scopolamine
Type: in vivo
Conditions: scopolamine 1 mg/kg i.p.
Protocol: For this, the active substances Melatonin 3 mg/Memantin 10 mg, Melatonin 5 mg/Memantin 20 mg, Melatonin 10 mg/Memantin 20 mg were taken, and doses recommended for human beings were converted into doses adapted for mice according to the formula “(active substance/70(average weight of a human being))×7”. Then the compositions were dissolved in 5 mL of the solution and, according to the given formula, introduced to animals intraperitoneally once a day for 5 days.
The CPAR test is the main model for evaluating substance influences on formation and replication of short-time memory in a normal condition and in an abnormal condition, i.e., induced amnesia. The CPAR is the most informative method among the methods that are used today for evaluating efficiency of substances with influence on the CNS of mammals (see, “Manual for Experimental (Pre-Clinical) Studies of New Pharmacological Substances”, 2000). The CPAR (conditioned passive avoidance reflex in a dark, light chamber) was taught to the mice on the basis of electrodermal response according to the method proposed by Cumin et al. (1982) with due regard to the recommendations given by Mondadori et al. (1990). The installation for mice, as produced by Lafayette Instrument Co., USA, was a black chamber with the electrode floor and a white plastic platform that was arranged on the floor in the center of the chamber. The mice, one by one, were put onto the plastic platform. The animals went/jumped down onto the electrode floor where they received an electric current shock, i.e., punishment. Electric current was supplied after the time when an animal stood on the floor with all its four legs. The natural response of the animals is to go back to the current-free or safe platform. […] Tests for memorizing CPAR were conducted in successive time intervals after amnesic action. In a case where an animal went/jumped down onto the platform within 1 minute, it was recorded as having retrograde amnesia of the passive avoidance skill. The compositions were studied in comparison with Melatonin 5 mg (mono-use) and Memantin 10 mg (mono-use), according to the above formula for adapting to animal models.
The compositions under study were dissolved in 5 mL of the solution and, according to the above formula, introduced to the animals intraperitoneally, once a day for 5 days.

[1] = 1 day after teaching, Melatonin 5 mg, Memantin 10 mg mono-use

SMILES: CN1[C@@H]2C[C@@H](OC(=O)[C@H](CO)c3ccccc3)C[C@H]1[C@@H]1O[C@@H]12 [Scopolamine]
- Latent time of entering into the dark chamber [1]: 72.3 ± 25.6 s
- Number of mice not entered into the dark chamber, % [1]: 25%
- Number of mice not entered into the dark chamber, % (3 days after teaching, Melatonin 5 mg, Memantin 10 mg mono-use): 33.3%
- Number of mice not entered into the dark chamber, % (7 days after teaching, Melatonin 5 mg, Memantin 10 mg mono-use): 41.6%
- Number of mice not entered into the dark chamber, % (10 days after teaching, Melatonin 5 mg, Memantin 10 mg mono-use): 50%
- CPAR amnesia observed, % of the animals (in 24 hours, p<0.001): 90%
- Number of mice taught to CPAR (%) (agents i.p. once a day for 5 days, Melatonin 5 mg, Memantin 10 mg mono-use): 58.3%
